Each block holds one compound with its values, some of them ahead of it.
Test system: 519858-162-T-J1-PDC complex spheroid viability
Experiment: Anticancer human tumor 519858-162-T-J1-PDC patient-derived colon adenocarcinoma cell line growth inhibition [GQUAD]
Conditions: for IC50: curve of first compound; for viability, T/C: stronger effect = lower value
Outline: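 Multi-cell-type spheroids of tumor cells with HUVEC and mesenchymal stem cells, treated with drug combinations. Concentrations descend in half-log steps from near clinical Cmax, or from 10 microM where Cmax is unknown; viability read-out.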

[1] = second compound 0.0316 µM, first compound 0.0316 µM
[2] = second compound 0.0316 µM, first compound 0.1 µM
[3] = second compound 0.0316 µM, first compound 0.316 µM
[4] = second compound 0.0316 µM, first compound 1 µM
[5] = second compound 0.0316 µM, first compound 3.16 µM
[6] = second compound 0.0316 µM, first compound 10 µM
[7] = second compound 0.1 µM, first compound 0.0316 µM
[8] = second compound 0.1 µM, first compound 0.1 µM
[9] = second compound 0.1 µM, first compound 0.316 µM
[10] = second compound 0.1 µM, first compound 1 µM
[11] = second compound 0.1 µM, first compound 3.16 µM
[12] = second compound 0.1 µM, first compound 10 µM
[13] = second compound 0.316 µM, first compound 0.0316 µM
[14] = second compound 0.316 µM, first compound 0.1 µM
[15] = second compound 0.316 µM, first compound 0.316 µM
[16] = second compound 0.316 µM, first compound 1 µM
[17] = second compound 0.316 µM, first compound 3.16 µM
[18] = second compound 0.316 µM, first compound 10 µM
[19] = second compound 1 µM, first compound 0.0316 µM
[20] = second compound 1 µM, first compound 0.1 µM
[21] = second compound 1 µM, first compound 0.316 µM
[22] = second compound 1 µM, first compound 1 µM
[23] = second compound 1 µM, first compound 3.16 µM
[24] = second compound 1 µM, first compound 10 µM
[25] = second compound 3.16 µM, first compound 0.0316 µM
[26] = second compound 3.16 µM, first compound 0.1 µM
[27] = second compound 3.16 µM, first compound 0.316 µM
[28] = second compound 3.16 µM, first compound 1 µM
[29] = second compound 3.16 µM, first compound 3.16 µM
[30] = second compound 3.16 µM, first compound 10 µM
[31] = second compound 10 µM, first compound 0.0316 µM
[32] = second compound 10 µM, first compound 0.1 µM
[33] = second compound 10 µM, first compound 0.316 µM
[34] = second compound 10 µM, first compound 1 µM
[35] = second compound 10 µM, first compound 3.16 µM
[36] = second compound 10 µM, first compound 10 µM
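Further: spheroids exposed to compounds for 7 days.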
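Wherever viability, T/C is given: 100% = DMSO vehicle control viability.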

SMILES: O=C(NO)c1cnc(N2CCN(S(=O)(=O)c3ccc4ccccc4c3)CC2)nc1 + Cc1[nH]c2ccc(F)cc2c1-c1nc2c3cccnc3c3ncccc3c2[nH]1
IC50 (second compound 0.0316 µM): 353 nM | IC50 (second compound 0.1 µM): 242 nM | IC50 (second compound 0.316 µM): 311 nM | IC50 (second compound 1 µM): 251 nM | IC50 (second compound 3.16 µM): 204 nM | IC50 (second compound 10 µM): 195 nM | viability, T/C [1]: 82.3% | viability, T/C [2]: 82.8% | viability, T/C [3]: 53.8% | viability, T/C [4]: 10% | viability, T/C [5]: 0.42% | viability, T/C [6]: 0.52% | viability, T/C [7]: 102% | viability, T/C [8]: 102% | viability, T/C [9]: 34.3% | viability, T/C [10]: 8.48% | viability, T/C [11]: 0.31% | viability, T/C [12]: 0.42% | viability, T/C [13]: 85.4% | viability, T/C [14]: 95.8% | viability, T/C [15]: 48.9% | viability, T/C [16]: 8.61% | viability, T/C [17]: 0.35% | viability, T/C [18]: 1.29% | viability, T/C [19]: 75.9% | viability, T/C [20]: 77.4% | viability, T/C [21]: 43% | viability, T/C [22]: 7.91% | viability, T/C [23]: 0.49% | viability, T/C [24]: 1.27% | viability, T/C [25]: 83% | viability, T/C [26]: 87.8% | viability, T/C [27]: 28.2% | viability, T/C [28]: 5.99% | viability, T/C [29]: 1.44% | viability, T/C [30]: 0.36% | viability, T/C [31]: 64.7% | viability, T/C [32]: 69.7% | viability, T/C [33]: 36.7% | viability, T/C [34]: 13.9% | viability, T/C [35]: 0.79% | viability, T/C [36]: 0.64%

SMILES: Nc1ccn(C2OC(CO)C(O)C2(F)F)c(=O)n1 (stereo unspecified) + Cc1[nH]c2ccc(F)cc2c1-c1nc2c3cccnc3c3ncccc3c2[nH]1
IC50 (second compound 0.0316 µM): > 10000 nM | IC50 (second compound 0.1 µM): > 10000 nM | IC50 (second compound 0.316 µM): > 10000 nM | IC50 (second compound 1 µM): > 10000 nM | IC50 (second compound 3.16 µM): > 10000 nM | IC50 (second compound 10 µM): > 10000 nM | viability, T/C [1]: 131% | viability, T/C [2]: 69.3% | viability, T/C [3]: 89.4% | viability, T/C [4]: 80.1% | viability, T/C [5]: 83% | viability, T/C [6]: 72.3% | viability, T/C [7]: 85.9% | viability, T/C [8]: 143% | viability, T/C [9]: 70.5% | viability, T/C [10]: 71% | viability, T/C [11]: 82.9% | viability, T/C [12]: 102% | viability, T/C [13]: 93.3% | viability, T/C [14]: 116% | viability, T/C [15]: 78.5% | viability, T/C [16]: 57.9% | viability, T/C [17]: 70% | viability, T/C [18]: 69.8% | viability, T/C [19]: 90.7% | viability, T/C [20]: 81.9% | viability, T/C [21]: 89.5% | viability, T/C [22]: 76.9% | viability, T/C [23]: 84.2% | viability, T/C [24]: 73.7% | viability, T/C [25]: 54.4% | viability, T/C [26]: 76.8% | viability, T/C [27]: 61.9% | viability, T/C [28]: 47.2% | viability, T/C [29]: 95.4% | viability, T/C [30]: 60.5% | viability, T/C [31]: 82.4% | viability, T/C [32]: 73.5% | viability, T/C [33]: 73% | viability, T/C [34]: 68.9% | viability, T/C [35]: 108% | viability, T/C [36]: 54.2%

IC50 (second compound 0.0316 µM): > 10000 nM | IC50 (second compound 0.1 µM): > 10000 nM | IC50 (second compound 0.316 µM): 10000 nM | IC50 (second compound 1 µM): < 31.6 nM | IC50 (second compound 3.16 µM): < 31.6 nM | IC50 (second compound 10 µM): < 31.6 nM
SMILES: CC(C)n1c(=O)n(C)c2cnc3cc(F)c(-c4ccc(OCCCN5CCCCC5)nc4)cc3c21 + Cc1cnc(CNC(=O)c2c(=O)c3ccc(N4CCCN(C)CC4)nc3n3c2sc2ccccc23)cn1
viability, T/C [1]: 55.4% | viability, T/C [2]: 61.4% | viability, T/C [3]: 73.1% | viability, T/C [4]: 53.7% | viability, T/C [5]: 70.2% | viability, T/C [6]: 66.4% | viability, T/C [7]: 66.8% | viability, T/C [8]: 47.8% | viability, T/C [9]: 64.3% | viability, T/C [10]: 60.6% | viability, T/C [11]: 56.3% | viability, T/C [12]: 54.6% | viability, T/C [13]: 66.7% | viability, T/C [14]: 68.9% | viability, T/C [15]: 52.3% | viability, T/C [16]: 48.5% | viability, T/C [17]: 49.8% | viability, T/C [18]: 61% | viability, T/C [19]: 44.2% | viability, T/C [20]: 45.9% | viability, T/C [21]: 44.2% | viability, T/C [22]: 46.7% | viability, T/C [23]: 44.1% | viability, T/C [24]: 43% | viability, T/C [25]: 35.6% | viability, T/C [26]: 25.4% | viability, T/C [27]: 54.8% | viability, T/C [28]: 44.1% | viability, T/C [29]: 60.2% | viability, T/C [30]: 51.5% | viability, T/C [31]: 37.1% | viability, T/C [32]: 43.6% | viability, T/C [33]: 46.7% | viability, T/C [34]: 52.5% | viability, T/C [35]: 59.7% | viability, T/C [36]: 68.8%

Source: PubChem BioAssay AID2060507 (Molecular Pharmacology Branch, DTP, NCI, 2025)
